The values that follow are results of earlier work, collected in publication PMC4338372 (FEBS Open Bio, 2015).

The data set deals with Src family kinase. To be noted: macrophages; inhibition of Src family kinase.

In the case of `CC(C)(C)n1nc(-c2ccc(Cl)cc2)c2c(N)ncnc21` [PP2], the phagocytosis efficiency result is listed as “decreases phagocytosis efficiency in macrophages”.
